Measured values from article PMC12951430, “Modular Vinyl Phosphonamidates for Cysteine-Directed Protein Targeting” (Journal of the American Chemical Society, 2026).
“And” between values parts separate entries of the source, which are not always exact repeats. Equal values may be shown once. “Also recorded” adds a separate entry of the source. Read-outs that look alike come from different tables or passages of the source.

What was measured:
RAMOS cell lysate = assay: Gel-based ABPP of alkyne probes in RAMOS cell lysate; design: species or system human; settings: RAMOS cell lysate 1 mg/mL, 10 and 100 μM, 1 h
Text: Greater reactivity yields a higher isoDTB ratio. Ratios ≥ 4 (dashed line) are considered liganded.
Nonetheless, since the formation of the glutathione conjugate was clearly notable, we wanted to investigate the reactivity of 1a with a more diverse set of thiols. Therefore, we examined all three electrophilic groups for their ability to label cysteines in whole-cell lysates. First, alkyne-functionalized reagents (1b–3b, for structures, see Scheme S1) were synthesized to allow for gel-based activity-based protein profiling (ABPP). […] Since all compounds share the same scaffold and differ only by their reactive functional group, we anticipate that any differences in labeling intensity should primarily stem from differences in electrophilicity. […] CAPA reporter cells were prepared by transiently transfecting HEK293T with a plasmid enabling the cytoplasmic expression of the Halotag protein, and concentration-dependent cell permeability was assessed. […]
Cells were harvested by centrifugation, washed trice with ice cold PBS (Ph 7.4) and stored at -70°C until lysis. […] Lysates were cleared by centrifugation (15’000 rcf) and the proteinconcentration was determined via BCA assay (Pierce BCA Protein Assay Kit, Thermo Fisher Scientific) according to the vendors instructions. […]

wt EGFR = target: T1, wt EGFR (Homo sapiens, UniProt P00533); assay: biochemical; type: biochemical
T1 construct: purchased Sino Biological
T1 sequence (P00533 25-1210): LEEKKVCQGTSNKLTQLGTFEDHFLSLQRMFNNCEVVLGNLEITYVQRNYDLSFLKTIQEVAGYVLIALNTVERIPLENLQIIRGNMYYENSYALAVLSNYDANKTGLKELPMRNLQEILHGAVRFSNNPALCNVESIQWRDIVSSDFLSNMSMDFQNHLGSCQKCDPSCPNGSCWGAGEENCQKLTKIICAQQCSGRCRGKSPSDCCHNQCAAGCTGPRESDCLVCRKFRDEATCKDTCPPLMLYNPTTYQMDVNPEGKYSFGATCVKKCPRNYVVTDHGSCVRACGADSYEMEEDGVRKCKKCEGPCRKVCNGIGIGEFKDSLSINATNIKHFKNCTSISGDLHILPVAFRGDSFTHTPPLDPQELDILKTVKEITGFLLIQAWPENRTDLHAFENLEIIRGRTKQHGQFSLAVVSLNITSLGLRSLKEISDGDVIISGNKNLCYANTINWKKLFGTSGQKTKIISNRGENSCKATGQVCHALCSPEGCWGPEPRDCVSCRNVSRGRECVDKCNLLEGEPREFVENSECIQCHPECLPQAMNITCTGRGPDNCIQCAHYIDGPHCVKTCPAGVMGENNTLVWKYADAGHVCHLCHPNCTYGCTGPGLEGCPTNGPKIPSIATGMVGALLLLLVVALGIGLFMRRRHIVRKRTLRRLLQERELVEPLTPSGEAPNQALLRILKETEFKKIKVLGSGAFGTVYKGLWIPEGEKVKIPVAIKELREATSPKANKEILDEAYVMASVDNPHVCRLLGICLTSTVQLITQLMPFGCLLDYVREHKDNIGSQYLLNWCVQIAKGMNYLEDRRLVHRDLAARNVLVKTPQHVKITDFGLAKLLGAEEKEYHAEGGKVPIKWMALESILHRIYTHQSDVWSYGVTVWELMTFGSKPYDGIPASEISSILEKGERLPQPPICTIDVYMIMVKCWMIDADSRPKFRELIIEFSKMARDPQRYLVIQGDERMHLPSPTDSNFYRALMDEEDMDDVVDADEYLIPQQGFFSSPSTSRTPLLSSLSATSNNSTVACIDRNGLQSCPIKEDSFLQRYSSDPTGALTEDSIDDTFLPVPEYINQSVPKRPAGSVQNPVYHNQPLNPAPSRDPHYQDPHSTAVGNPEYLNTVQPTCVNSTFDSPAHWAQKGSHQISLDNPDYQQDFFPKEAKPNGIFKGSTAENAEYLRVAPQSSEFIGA

wild-type EGFR = wild-type EGFR (Homo sapiens, UniProt P00533); assay: biochemical; settings: in vitro kinase assay
wild-type EGFR, sequence (P00533 25-1210): as above

EGFR in A431 cells = EGFR in A431 cells (Homo sapiens, UniProt P00533); assay: Gel-based ABPP of EGFR probes in A431 cells; settings: for in-cell EGFR labeling, competition with excess Afatinib: pretreatment Afatinib 5 μM; for target selectivity in time-course labeling: 1 µM, up to 6 h
EGFR in A431 cells, sequence (P00533 25-1210): as above
Procedure: With this probe in hand, we treated wild-type EGFR overexpressing A431 cells at a probe concentration of 1 μM for 1 h at 37 °C, followed by lysis and fluorescent labeling via CuAAC.
For EGFR -probes, A431 -cells were seeded at 60’000 cells/well in a 6-well plate (Greiner Bio-One) and incubated until 80 -100% confluencey. Before treatment , cells were washed twice with PBS. Cells were incubated with the indicated compound concentration (final conc. of 1% DMSO in RPMI -FCS ) at 37 °C.
After the incubati on, cells were washed twice with ice cold PBS and lysed in ice -cold RIPA -buffer containing cOmplete TM protease inhibitor (Roche), 50 mM iodo acetamide (I1149, Sigma Aldrich) and
Following a 10 min incubation at 37 °C lysat es were transferred
TBTA, 0.5 mM TCEP, 0.05 mM fluorescein-N3) in a shaker (800 rpm, 37 °C) for 45 minutes. Afterwards, proteins were precipitated with the 4-fold volume of acetonitrile and cetrifuged (14’00 rcf, 5 min). The solvent was removed and precipitates were resuspended in 80% EtOH followed by another round of centrifugation (10’000 rcf, 5 min). The pellets were aspirated and left to dry on air for 5-10 minutes.
and bands were quantified in ImageLab 6.1.

A431 cells = assay: Proteomic pulldown with EGFR probes in A431 cells (LFQ); type: cell-based, human; settings: for # Labelled Proteins (total number of significantly enriched proteins) / off-targets enriched: 10 μM probe
Procedure: To gain a more detailed understanding of which proteins are labeled by the corresponding probe, we performed a proteomic pulldown experiment. […] . […] Additionally, we also wanted to investigate proteomic engagement under more extreme conditions, using a 10 μM probe concentration. […] Even though both probes enriched a large portion of proteins, EGFR was still among the most prominent hits for the phosphonamidate probe and only to a lesser extent for 5 (Figure S11). Overall, we observed a certain degree of complementarity between the off-targets obtained from the corresponding probes (Figures j and S12). […] Most prominently, selenoprotein SELENOT and solute carrier protein SLC25A32 were only enriched by phosphonamidate probe 7. On the other hand, several proteins like the cysteine proteases ATG4B, CTSB, and BOLA2 were exclusively enriched by DMAC probe 5.
Figure S 10: Volcano blots obtained from label free quantification of the proteins from streptavidin pulldowns performed with 1 µM probe 5 or 7 (in comparison to the DMSO treated sample). Proteins were identified and quantified and blotted as described in 4.8: Variance stabilization and Perseus-type […]
At the tested concentration, both probes solely enrich
EGFR. Data was obtained from 4 independent replicates.
Figure S 11: Volcano blots obtained from label free quantification of the proteins from streptavidin pulldowns performed with 10 µM probe 5 or 7 (in comparison to the DMSO treated sample). Proteins […]
imputation were enabled. Proteins surpassing a log 2 fold-change of 2.5 and a -log10 adjusted p-value […]
proteins can be found in Supplementary Table 1. Data was obtained from 4 independent replicates. […]
4.8 In-cell protein labeling and s ample preparation for proteomic pull-down Cells were cultured, treated and lysed as described in 4.4. Lysates (approx. 200 μg of protein each) […]
Afterwards, the samples we re processed according to a procedure published by Becker et al. 10: A total of 50 μl of mixed hydrophobic and hydrophilic carboxylate -coated magnetic beads (1:1, prewashed with PBS; Seramag™, Cytavia) was added to the click reaction mixture followed by 600 μl of absolute ethanol to precipitate the proteins. Beads were washed thrice with of 80% ethanol and proteins were eluted by two sequential washes of 0.2% SDS in PBS. The eluted proteins were directly transferred onto 30 μl of streptavidin-coated magnetic beads (prewashed with 0.2% SDS in PBS; New England Biolabs) and incubated on a shaker for 1 h at r.t. Streptavidin-beads were washed thrice with 8 M urea, PBS pH 7.4 and MilliQ water. Washed beads were resuspended in 100 mM ABC buffer, followed by […]
trypsinized overnight at 37 °C (1.5 µg/sample, Promega). The supernatant was removed, acidified to 1% TFA, centrifuged at 10‘000 rcf for 5 minutes and stored at -20 °C until measurement. Before MS/MS analysis a quality-control run was conducted on a Waters XEVO G2-XS QTof instrument to ensure […]
Samples were diluted based on the QC-runs to ensure equal loading. LC-MS/MS analysis was performed using an UltiMate 3000 RSLC nano LC system coupled on -line to an Orbitrap Fusion mass spectrometer (Thermo Fisher Scientific). For sample loading a PepMap C -18 trap-column (Thermo Fischer Scientific) of 0.075 mm ID x 50 mm length, 3 μm particle size and 100 Å pore size was used. The loading mobile phase A contained 1% acetonitrile and 0.05% TFA acid in water, and mobile phase B 0.05% TFA acid in acetonitrile. Reversed-phase separation was performed using a 50 cm analytical column (in-house packed with Poroshell 120 EC-C18, 2.7μm, Agilent Technologies) with mobile phase A contained 0.1% formic acid in water, and mobile phase B 0.1% formic acid in acetonitrile using a 93 […]
ions with charge states 2-4 were isolated with a mass selecting quadrupole (isolation window 1.6 m/z)

RAMOS cells = assay: Off-target reactivity in EGFR-negative RAMOS cells (gel-based); settings: up to 10 μM, 1 h, 1 μM time course
Procedure: probe 5 in EGFR-negative RAMOS-cells. Cells (3x10^6/ml) were treated with the indicated probe-
concentration for 1 h @ 37 °C in RPMI –FCS. After the treatment, cells were processed according to the
Data is representative of three independent experiments. a) Fluorescent gel
of RAMOS-cells treated with the indicated probe-concentration. b) Relative fluorescent intensity of
three independent experiments c) Fluorescent gel of RAMOS-cells treated 1 µM probe 5 or 7 for the
indicated time. b) Relative fluorescent intensity of three independent experiments (quantitative results
were normalized to the most intense band in each replicate)
For BTK-probes, RAMOS-cells were seeded at 3x10^6 cells/ml (RMPI w/o FCS) and incubated with the indicated compound concentration (final conc. of 1% DM SO) at 37 °C. After the incubation, cells were harvested by centrifugation, washed twice with ice cold PBS and lysed in ice -cold RIPA-buffer containing cOmpleteTM protease inhibitor (Roche), 50 mM iodo acetamide (I1149, Sigma Aldrich) and
Following a 10 min incubation at 37 °C lysates were f urther processed as described above.

BTK in RAMOS cells = target: T2, BTK in RAMOS cells (Homo sapiens, UniProt Q06187); assay: Gel-based ABPP of BTK probes in RAMOS cells; type: cell-based; settings: 250 nM, 1 h, 37 °C
T2 construct: we performed a gel-based ABPP experiment using RAMOS cells; host or cells: RAMOS
T2 sequence (Q06187 whole entry): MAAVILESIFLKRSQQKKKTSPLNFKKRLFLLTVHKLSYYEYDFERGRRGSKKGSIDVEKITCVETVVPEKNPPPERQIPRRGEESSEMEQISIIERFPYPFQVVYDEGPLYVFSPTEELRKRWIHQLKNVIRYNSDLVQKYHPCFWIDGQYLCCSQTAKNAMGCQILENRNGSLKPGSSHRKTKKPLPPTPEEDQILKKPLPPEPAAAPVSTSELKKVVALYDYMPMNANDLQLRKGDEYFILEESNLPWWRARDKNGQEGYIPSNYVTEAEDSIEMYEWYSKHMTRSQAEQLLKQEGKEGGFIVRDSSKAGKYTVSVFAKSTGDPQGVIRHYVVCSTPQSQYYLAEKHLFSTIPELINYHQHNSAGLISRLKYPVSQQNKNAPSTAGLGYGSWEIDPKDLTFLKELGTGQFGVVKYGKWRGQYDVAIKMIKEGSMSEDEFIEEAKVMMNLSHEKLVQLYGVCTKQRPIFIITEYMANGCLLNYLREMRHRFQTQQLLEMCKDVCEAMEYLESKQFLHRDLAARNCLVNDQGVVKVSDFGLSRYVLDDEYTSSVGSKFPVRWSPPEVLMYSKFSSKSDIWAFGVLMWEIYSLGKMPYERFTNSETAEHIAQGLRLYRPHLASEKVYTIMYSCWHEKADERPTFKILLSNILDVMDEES
Text: Motivated by these promising results, we wanted to extend the scope toward a different class of kinase inhibitors. […] Inspired by these findings, we synthesized a series of VPA probes based on the pyrazolo[3,4-d]-pyrimidine scaffold (8–11, Figure a), each harboring a different aromatic linker. To compare their reactivity and selectivity for BTK, we performed a gel-based ABPP experiment using RAMOS cells. […] In contrast, for all four PA probes, only one intense band was obtained at the same height as BTK. […] Analogously to Afatinib-derived probe 4a, we wanted to investigate whether one stereoisomer might show preferential binding.
(b) Comparison of the in-cell reactivity profiles of BTK probes 8–12 in RAMOS cells (250 nM, 1 h, 37 °C) analyzed by gel-based ABPP. […]
Fluorescence was monitored over 4 h at 30 °C every 60 seconds (λex = 360 nm and λem = 492 nm).
Background‑subtracted fluorescence intensity (RFU) was plotted against time (s), and data were fitted to a single‑phase association model: […]
4.7 In-cell protein labeling and in -gel fluorescence analysis […]
Afterwards, the precipitate was redissolved in 40 µl 8 M urea (100 mM Tris, pH 8), 8 µl Laemmli buffer were added and the samples were denatured at 95 °C for 5 minutes. Proteins were seperated via SDS - PAGE (12% or 4-20% acrylamide gels) and analyzed on a Gel Doc XR+ (Bio-Rad, USA). […]

| Structure (SMILES) | in-cell EGFR labeling, competition with excess Afatinib (EGFR in A431 cells; 1 h 37 °C) | target selectivity in time-course labeling (EGFR in A431 cells) | # Labelled Proteins (total number of significantly enriched proteins) (A431 cells; A431 cells) | off-targets enriched (A431 cells; A431 cells) | off-target labeling in EGFR-negative cells (RAMOS cells) | further results |
| --- | --- | --- | --- | --- | --- | --- |
| C#Cc1ccc(NC(=O)CCl)cc1 [3b] |  |  |  |  |  | fluorescent labeling signal (RAMOS cell lysate): most intense fluorescent signal |
| C=CP(=O)(Nc1cc2c(Nc3ccc(F)c(Cl)c3)ncnc2cc1O[C@H]1CCOC1)OCC (stereo partly shown) [4a] |  |  |  |  |  | Ki (wt EGFR; 4a 2–50 nM): 2.43 nM; k inact (wt EGFR; 4a 2–50 nM): 0.24 × 10^–3 s^–1; k inact/K I ratio (wt EGFR; direct comparison): 97 × 10^3 M^–1 s^–1; IC50 (wild-type EGFR): 0.68 nM and 0.67 nM |
| C#CCCOP(=O)(C=C)Nc1cc2c(Nc3ccc(F)c(Cl)c3)ncnc2cc1O[C@H]1CCOC1 (stereo partly shown) [4c] | selective covalent engagement of EGFR |  |  |  |  |  |
| C#CCOc1cc2ncnc(Nc3ccc(F)c(Cl)c3)c2cc1NC(=O)/C=C/CN(C)C [compound 5, reference compound] |  | significantly higher off-target labeling | 327 | 118 | significant fluorescent labeling of off-targets | significantly enriched proteins (A431 cells; A431 cells, 1 μM probe, 2 h 37 °C, log2-fold change >2.5, adjusted p <0.01): solely enrich |
| C#CCOc1cc2ncnc(Nc3ccc(F)c(Cl)c3)c2cc1NP(=O)(C=C)OCC (stereo not shown) [compound 7] | EGFR-selective labeling | did not decrease | 119 | 327 | almost no labeling | lowest concentration with detectable labeling signal (EGFR in A431 cells; 1 h 37 °C): ≤ 5 nM; significantly enriched proteins (A431 cells): solely enrich; also recorded: EGFR is the only protein significantly enriched |
| C#CCCOP(=O)(C=C)Nc1ccccc1Cn1nc(-c2ccc(Oc3ccccc3)cc2)c2c(N)ncnc21 (stereo not shown) [compound 9] |  |  |  |  |  | in-cell reactivity profile (gel bands) (BTK in RAMOS cells): most intense labeling |
